According to patent US20210252032A1, “DRUGS FOR GRP78 CELL SURFACE TRANSLOCATION AND PAR-4 SECRETION” (University of Kentucky Research Foundation, priority 2020, published 2021):
Entries after “also recorded” stand apart in the source; their conditions may differ.

What was measured:
[1] = test system: p53-deficient KP7B lung tumor cells; test: GRP78 cell surface expression in KP7B lung tumor cells (FIG. 1); type: cell-based
From the text: (§1) To maximize the apoptotic effect of secreted Par-4 on lung tumors, the second active agent is effective to elevate GRP78 on the surface of cancer cells and thereby complements the apoptotic action of secreted Par-4. […] Approximately 5% of patients with non-small cell lung cancer (NSCLC) have tumors that contain an inversion in chromosome 2 that juxtaposes the 5′ end of the echinoderm microtubule-associated protein-like 4 (EML4) gene with the 3′ end of the ALK gene. This juxtaposition results in the fusion oncogene called EML4-ALK. ALK+ tumors are highly sensitive to therapy with ALKtargeted inhibitors. […] On the other hand, phosphorylation of SRC at tyrosine 530 (Y530) by C-terminal SRC kinase (Csk) and Csk homologous kinase results in inactivation of SRC.

[2] = test system: normal lung fibroblast HEL cells; test: GRP78 cell surface expression in normal HEL cells (FIG. 1); type: cell-based
From the text: as §1

[3] = test system: cancer cells; test: Cell surface expression of GRP78 in cancer cells (FIG. 1 legend); type: cell-based
[4] = test system: epithelial BEAS2B cells; test: GRP78 cell surface expression in normal BEAS2B cells (FIG. 1); type: cell-based
From the text: as §1

[5] = test system: lung cancer cells; conditions: previous studies (background); cited from earlier work
[6] = test system: normal cells; test: Par-4 secretion from normal cells; type: cell-based; conditions: levels relative to those achieved previously with chloroquine
[7] = test system: lung cancer cells; test: GRP78 cell surface translocation in lung cancer cells (FIG. 2); type: cell-based; conditions: nanomolar concentrations
From the text: as §1

[8] = test system: LLC1-derived lung tumor nodules; conditions: CQ in conjunction with CZT, relative to CZT or CQ administered separately; cited from earlier work
[9] = test system: tyrosine-protein kinase SRC; test: SRC activation (FIG. 3); type: cell-based; conditions: lung cancer cells
From the text: Dephosphorylation of Y530 by phosphatases results in autophosphorylation of SRC at Y419, leading to activation. SRC activation triggers a signaling cascade that prevents retrograde trafficking of proteins from the Golgi to the ER and promotes GRP78 translocation from the Golgi to the cell surface.

C[C@@H](Oc1cc(-c2cnn(C3CCNCC3)c2)cnc1N)c1c(Cl)ccc(F)c1Cl [CZT, Crizotinib]
Par-4 receptor GRP78 on the cell surface [1]: elevated | Par-4 receptor GRP78 on the cell surface [2]: not | cell surface expression of GRP78 in cancer cells [3]: induces | Par-4 receptor GRP78 on the cell surface [4]: not | Par-4 receptor GRP78 levels on lung cancer cells [5]: inducer

COc1cc([C@@H]2c3cc4c(cc3[C@@H](O[C@@H]3O[C@@H]5CO[C@@H](C)O[C@H]5[C@H](O)[C@H]3O)[C@H]3COC(=O)[C@H]23)OCO4)cc(OC)c1O [etoposide]
Par-4 secretion from normal cells [6]: comparable to, or higher than

COCCn1c2c([n+](Cc3cnccn3)c1C)C(=O)c1ccccc1C2=O [YM155]
GRP78 cell surface translocation [7]: induce cell surface expression of GRP78; also recorded: induced GRP78 cell surface translocation

COc1cccc2c1C(=O)c1c(O)c3c(c(O)c1C2=O)C[C@@](O)(C(=O)CO)C[C@@H]3O[C@H]1C[C@H](N)[C@H](O)[C@H](C)O1 [doxorubicin]
Par-4 secretion from normal cells [6]: comparable to, or higher than

CCN(CC)CCCC(C)Nc1ccnc2cc(Cl)ccc12 (stereo not drawn) [CQ, chloroquine]
inhibition of LLC1-derived lung tumor nodules [8]: significantly greater inhibition

CCc1cc2c(cc1N1CCC(N3CCOCC3)CC1)C(C)(C)c1[nH]c3cc(C#N)ccc3c1C2=O [alectinib]
activation of SRC [9]: cause the activation of SRC

COc1cc(Nc2ncc3c(n2)-c2ccc(Cl)cc2C(c2c(F)cccc2OC)=NC3)ccc1C(=O)O [alisertib]
GRP78 cell surface translocation [7]: induce cell surface expression of GRP78; also recorded: induced GRP78 cell surface translocation

CCc1c2c(nc3ccc(OC(=O)N4CCC(N5CCCCC5)CC4)cc13)-c1cc3c(c(=O)n1C2)COC(=O)[C@]3(O)CC [irinotecan]
Par-4 secretion from normal cells [6]: comparable to, or higher than
